Columns and labels:
[1] = target: T1, Tyrosine-protein kinase JAK1 (Homo sapiens, UniProt P23458); assay: biochemical
Description: Inhibition of recombinant human JAK1 (854 to 1154 residues) expressed in insect cells using Y1-B as substrate incubated for 30 mins by microfluidic mobility shift assay

Janus Kinase (JAK) = Janus Kinase (JAK) (Homo sapiens, UniProt P52333+P23458+O60674+P29597); settings: beas-2b
Description: Inhibition of JAK in human BEAS-2B cells assessed as reduction in IL13-induced STAT6 phosphorylation incubated for 1 hr followed by IL13 addition and measured after 15 mins by immunofluorescence assay

in vitro [2] = settings: dog, MDCK
Description: Efflux ratio of apparent permeability basolateral to apical over apical to basolateral side in MDCK cells at 10 uM incubated upto 180 mins by LC/MS-MS analysis

in vitro [3] = settings: dog, MDCK; remark: listed apart in the source
Description: Apparent permeability across apical to basolateral side in MDCK cells at 10 uM incubated upto 180 mins by LC/MS-MS analysis

[4] = target: Tyrosine-protein kinase JAK2 (Homo sapiens, UniProt O60674)
Description: Inhibition of recombinant human JAK2 (812 to 1132 residues) expressed in insect cells using Y1-B as substrate incubated for 30 mins by microfluidic mobility shift assay

[5] = Metabolic stability in human liver microsomes assessed as intrinsic clearance at 1 uM measured upto 60 mins by LC-MS/MS analysis; type: ADME, Microsome; settings: read-out: CLH
LRRK2 = LRRK2 (Homo sapiens, UniProt Q5S007); assay: Inhibition of recombinant human GST-tagged LRRK2 (970 to 2527 residues) expressed in baculovirus expression system using LRRKtide as substrate at 0.1 uM incubated for 60 mins by Adapta assay relative to control; settings: probe LRRKtide
[6] = Lipophilicity, logD of compound; type: physicochemical; settings: octanol/water
[7] = target: Leucine-rich repeat serine/threonine-protein kinase 2 (Homo sapiens, UniProt Q5S007); assay: Inhibition of recombinant human GST-tagged LRRK2 (970 to 2527 residues) expressed in baculovirus expression system using LRRKtide as substrate incubated for 60 mins by Adapta assay
[8] = target: T1, Tyrosine-protein kinase JAK1

T1 sequence (P23458 whole entry): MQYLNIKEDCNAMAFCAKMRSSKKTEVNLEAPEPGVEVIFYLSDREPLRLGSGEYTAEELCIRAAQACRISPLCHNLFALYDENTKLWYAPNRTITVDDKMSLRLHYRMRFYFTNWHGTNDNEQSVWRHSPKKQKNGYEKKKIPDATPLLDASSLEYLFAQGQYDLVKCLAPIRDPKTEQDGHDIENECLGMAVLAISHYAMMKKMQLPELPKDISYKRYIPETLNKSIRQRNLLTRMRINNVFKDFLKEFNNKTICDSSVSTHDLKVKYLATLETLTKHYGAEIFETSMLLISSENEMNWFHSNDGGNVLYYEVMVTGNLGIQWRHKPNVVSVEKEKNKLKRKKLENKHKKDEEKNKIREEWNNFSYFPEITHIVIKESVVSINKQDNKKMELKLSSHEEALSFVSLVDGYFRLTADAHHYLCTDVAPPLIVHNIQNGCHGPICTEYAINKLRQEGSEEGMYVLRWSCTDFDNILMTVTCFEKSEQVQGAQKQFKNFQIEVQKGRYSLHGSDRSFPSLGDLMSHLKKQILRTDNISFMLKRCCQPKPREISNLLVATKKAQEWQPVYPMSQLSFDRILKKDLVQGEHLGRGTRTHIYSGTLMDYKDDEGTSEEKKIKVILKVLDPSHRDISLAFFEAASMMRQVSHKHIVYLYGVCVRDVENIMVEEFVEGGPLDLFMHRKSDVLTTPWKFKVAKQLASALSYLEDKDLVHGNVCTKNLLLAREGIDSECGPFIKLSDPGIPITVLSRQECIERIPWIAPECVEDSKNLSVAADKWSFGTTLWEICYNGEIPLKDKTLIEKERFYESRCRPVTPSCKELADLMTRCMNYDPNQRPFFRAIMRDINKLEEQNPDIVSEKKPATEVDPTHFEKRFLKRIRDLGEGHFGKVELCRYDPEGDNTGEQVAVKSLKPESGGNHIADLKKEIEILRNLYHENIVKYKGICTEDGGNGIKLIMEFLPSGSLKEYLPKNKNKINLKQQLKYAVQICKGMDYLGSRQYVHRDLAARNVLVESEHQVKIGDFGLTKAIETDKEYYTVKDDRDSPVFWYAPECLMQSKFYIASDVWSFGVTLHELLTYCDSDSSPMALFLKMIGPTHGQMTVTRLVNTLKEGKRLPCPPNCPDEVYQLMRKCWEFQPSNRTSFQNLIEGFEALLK
Chain of LRRK2 (Q5S007 whole entry, the tested form may be a part): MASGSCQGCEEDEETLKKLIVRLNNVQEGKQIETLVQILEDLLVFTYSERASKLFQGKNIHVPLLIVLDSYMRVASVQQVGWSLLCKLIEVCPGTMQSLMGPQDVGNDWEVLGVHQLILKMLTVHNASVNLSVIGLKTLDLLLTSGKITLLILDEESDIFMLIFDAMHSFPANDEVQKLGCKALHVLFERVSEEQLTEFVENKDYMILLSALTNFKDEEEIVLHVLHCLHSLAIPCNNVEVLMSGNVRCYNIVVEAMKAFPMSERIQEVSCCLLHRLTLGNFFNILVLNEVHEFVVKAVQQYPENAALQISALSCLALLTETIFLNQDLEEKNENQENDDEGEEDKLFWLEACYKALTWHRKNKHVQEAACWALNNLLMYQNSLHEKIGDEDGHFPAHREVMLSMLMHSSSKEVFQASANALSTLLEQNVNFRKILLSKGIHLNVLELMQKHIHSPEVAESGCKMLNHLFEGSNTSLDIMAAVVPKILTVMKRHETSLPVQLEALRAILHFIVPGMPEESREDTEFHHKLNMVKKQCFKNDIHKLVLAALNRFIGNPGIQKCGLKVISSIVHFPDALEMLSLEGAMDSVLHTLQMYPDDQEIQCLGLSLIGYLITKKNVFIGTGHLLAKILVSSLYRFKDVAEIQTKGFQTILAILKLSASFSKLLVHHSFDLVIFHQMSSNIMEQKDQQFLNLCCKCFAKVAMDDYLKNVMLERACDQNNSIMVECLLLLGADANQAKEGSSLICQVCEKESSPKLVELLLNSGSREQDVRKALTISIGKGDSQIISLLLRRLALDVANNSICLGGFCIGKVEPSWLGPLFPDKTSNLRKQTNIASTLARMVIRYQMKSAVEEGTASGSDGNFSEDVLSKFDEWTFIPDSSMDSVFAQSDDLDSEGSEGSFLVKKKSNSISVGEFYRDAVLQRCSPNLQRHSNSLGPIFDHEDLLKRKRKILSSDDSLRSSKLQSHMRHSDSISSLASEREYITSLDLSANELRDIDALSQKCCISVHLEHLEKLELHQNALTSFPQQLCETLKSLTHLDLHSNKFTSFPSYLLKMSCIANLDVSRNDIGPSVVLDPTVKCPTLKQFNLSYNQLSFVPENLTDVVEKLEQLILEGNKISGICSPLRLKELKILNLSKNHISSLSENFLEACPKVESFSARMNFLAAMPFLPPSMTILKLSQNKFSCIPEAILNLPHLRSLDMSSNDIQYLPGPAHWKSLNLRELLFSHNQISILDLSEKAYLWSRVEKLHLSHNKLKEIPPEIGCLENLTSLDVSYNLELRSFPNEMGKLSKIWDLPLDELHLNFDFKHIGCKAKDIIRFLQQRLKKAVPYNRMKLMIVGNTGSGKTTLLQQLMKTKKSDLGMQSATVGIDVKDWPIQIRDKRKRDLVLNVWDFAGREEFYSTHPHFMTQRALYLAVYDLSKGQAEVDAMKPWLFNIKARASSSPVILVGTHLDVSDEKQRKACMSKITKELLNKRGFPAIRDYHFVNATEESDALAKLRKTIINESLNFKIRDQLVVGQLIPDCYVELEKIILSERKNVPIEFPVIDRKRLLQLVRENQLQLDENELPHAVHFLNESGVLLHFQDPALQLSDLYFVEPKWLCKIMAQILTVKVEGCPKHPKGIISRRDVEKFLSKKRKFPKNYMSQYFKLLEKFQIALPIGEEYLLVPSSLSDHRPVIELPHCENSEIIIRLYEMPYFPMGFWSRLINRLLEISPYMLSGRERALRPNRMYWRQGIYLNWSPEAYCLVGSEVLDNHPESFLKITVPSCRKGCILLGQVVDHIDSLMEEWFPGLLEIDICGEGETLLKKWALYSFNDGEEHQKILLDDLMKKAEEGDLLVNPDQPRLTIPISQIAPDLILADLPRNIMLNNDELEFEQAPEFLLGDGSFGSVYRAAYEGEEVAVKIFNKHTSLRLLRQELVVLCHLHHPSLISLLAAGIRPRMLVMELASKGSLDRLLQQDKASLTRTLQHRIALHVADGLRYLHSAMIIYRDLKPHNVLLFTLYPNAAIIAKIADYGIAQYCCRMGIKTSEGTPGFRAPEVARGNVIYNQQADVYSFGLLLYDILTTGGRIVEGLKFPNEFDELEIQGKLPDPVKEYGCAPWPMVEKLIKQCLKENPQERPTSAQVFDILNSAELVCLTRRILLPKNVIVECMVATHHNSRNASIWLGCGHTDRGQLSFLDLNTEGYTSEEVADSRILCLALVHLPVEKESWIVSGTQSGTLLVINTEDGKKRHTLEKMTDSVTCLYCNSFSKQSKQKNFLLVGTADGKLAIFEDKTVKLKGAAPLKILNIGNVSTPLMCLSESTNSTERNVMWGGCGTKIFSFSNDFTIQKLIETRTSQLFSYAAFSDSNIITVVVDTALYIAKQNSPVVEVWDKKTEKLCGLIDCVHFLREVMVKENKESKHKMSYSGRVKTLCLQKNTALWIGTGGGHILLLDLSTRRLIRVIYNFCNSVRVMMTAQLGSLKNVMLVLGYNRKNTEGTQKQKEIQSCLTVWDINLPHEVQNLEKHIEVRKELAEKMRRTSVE
Chain of Tyrosine-protein kinase JAK2 (O60674 whole entry): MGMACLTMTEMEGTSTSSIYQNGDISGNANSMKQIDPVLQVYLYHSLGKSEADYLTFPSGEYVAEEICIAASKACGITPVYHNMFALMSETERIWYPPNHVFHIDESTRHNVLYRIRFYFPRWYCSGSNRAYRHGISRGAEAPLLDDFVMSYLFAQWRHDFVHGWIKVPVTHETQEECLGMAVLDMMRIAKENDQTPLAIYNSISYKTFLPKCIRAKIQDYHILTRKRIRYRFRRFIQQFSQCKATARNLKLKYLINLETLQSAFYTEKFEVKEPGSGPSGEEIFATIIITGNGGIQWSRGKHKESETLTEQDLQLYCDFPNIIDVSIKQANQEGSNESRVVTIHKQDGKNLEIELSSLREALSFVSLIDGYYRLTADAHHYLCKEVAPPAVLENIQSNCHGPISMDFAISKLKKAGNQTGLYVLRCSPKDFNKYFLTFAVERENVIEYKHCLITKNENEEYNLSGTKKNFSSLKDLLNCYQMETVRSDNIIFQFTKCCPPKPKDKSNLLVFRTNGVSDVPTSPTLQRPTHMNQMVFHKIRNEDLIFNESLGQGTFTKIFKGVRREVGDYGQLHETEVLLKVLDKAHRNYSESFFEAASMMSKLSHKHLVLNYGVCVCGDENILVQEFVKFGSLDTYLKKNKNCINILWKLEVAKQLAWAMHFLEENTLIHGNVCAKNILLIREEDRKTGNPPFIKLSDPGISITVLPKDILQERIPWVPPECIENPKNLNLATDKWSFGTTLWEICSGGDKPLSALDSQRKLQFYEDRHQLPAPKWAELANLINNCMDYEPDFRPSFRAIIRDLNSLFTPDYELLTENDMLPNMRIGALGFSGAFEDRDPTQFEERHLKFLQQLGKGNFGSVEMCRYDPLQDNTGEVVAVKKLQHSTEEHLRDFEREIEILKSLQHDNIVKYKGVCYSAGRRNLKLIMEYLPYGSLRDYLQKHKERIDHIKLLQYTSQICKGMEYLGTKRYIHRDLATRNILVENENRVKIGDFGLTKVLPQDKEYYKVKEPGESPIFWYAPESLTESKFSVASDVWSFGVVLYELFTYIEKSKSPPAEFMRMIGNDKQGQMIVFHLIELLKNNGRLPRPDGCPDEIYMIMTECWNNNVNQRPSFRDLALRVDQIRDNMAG
Chain of Leucine-rich repeat serine/threonine-protein kinase 2 (Q5S007 whole entry, the tested form may be a part): as the sequence (Q5S007 whole entry, the tested form may be a part) above

Row | SMILES | Ki [1] [nM] | IC50 (Janus Kinase (JAK)) [nM] | Ki [4] [nM] | also measured
1 | Cc1cc(Nc2nccc3nc(-c4c(Cl)cc(C#N)cc4Cl)[nH]c23)ncn1 | 23 | 1300 |  | efflux ratio at 3 h, 10 µM (in vitro [2]): 0.81; Papp A→B at 3 h, 10 µM (in vitro [3]): 16 ×10⁻⁶ cm/s
2 | O=C(Nc1c[nH]nc1-c1cc(Cl)ccc1OC(F)F)c1cnc2[nH]ccc2n1 | 5.6 | 42 | 0.96 | 
3 | O=C(Nc1c[nH]nc1-c1cc(Cl)ccc1OC(F)F)c1cnn2cc(F)cnc12 | 7.8 |  | 2.4 | 
4 | O=C(Nc1c[nH]nc1-c1cc2cn[nH]c2cc1OC(F)F)c1cnn2cccnc12 | 0.075 | 40 | 0.052 | efflux ratio at 3 h, 10 µM (in vitro [2]): 1; CLint scaled at 1 µM [5]: 4.4 mL/min/kg; inhibition at 1 h, 0.1 µM (LRRK2): 89%; logD [6]: 1.6; Papp A→B at 3 h, 10 µM (in vitro [3]): 1.6 ×10⁻⁶ cm/s
5 | COc1cc2[nH]ncc2cc1-c1n[nH]cc1NC(=O)c1cnn2cccnc12 |  | 370 |  | 
6 | C[C@@H](O)c1nc2cnc3[nH]ccc3c2n1[C@H]1CCCOC1 | 2.9 | 210 |  | efflux ratio at 3 h, 10 µM (in vitro [2]): 0.81; Papp A→B at 3 h, 10 µM (in vitro [3]): 6.2 ×10⁻⁶ cm/s
7 | CC[C@@H]1CN(C(=O)NCC(F)(F)F)C[C@@H]1c1cnc2cnc3[nH]ccc3n12 [UPADACITINIB] |  |  |  | Papp A→B at 3 h, 10 µM (in vitro [3]): 3.6 ×10⁻⁶ cm/s
8 | COc1ccc(Cl)cc1-c1nn(C)cc1NC(=O)c1cncc2cn(C)nc12 | 4.3 | 93 | 4.7 | 
9 | O=C(Nc1c[nH]nc1-c1ccccc1OC(F)F)c1cnn2cccnc12 | 3.3 |  | 0.86 | 
10 | COc1ccc(Cl)c(F)c1-c1n[nH]cc1NC(=O)c1cnn2cccnc12 | 0.95 | 15 | 0.29 | 
11 | C#Cc1ccc2ncc(C(=O)Nc3c[nH]nc3-c3cc(Cl)ccc3OC(F)F)n2n1 |  | 13 | 0.078 | 
12 | CSc1ccc(Cl)cc1-c1nn(C)cc1NC(=O)c1cnn2cccnc12 | 0.46 | 11 | 0.23 | 
13 | COc1ccc(Cl)cc1-c1nn(C)cc1NC(=O)c1cncc2[nH]nnc12 | 370 |  | 730 | 
14 | Cn1cc(NC(=O)c2cnn3cccnc23)c(-c2cc(Cl)ccc2CO)n1 | 45 |  | 8.6 | 
15 | O=C(Nc1c[nH]nc1-c1cc(Cl)ccc1OC(F)F)c1cncc2scnc12 | 0.51 | 9.2 | 0.17 | 
16 | O=C(Nc1c[nH]nc1-c1cc(Cl)ccc1OC(F)F)c1cnc2cccnn12 | 0.21 | 5 | 0.071 | 
17 | O=C(Nc1c[nH]nc1-c1cc(Br)ccc1OC(F)F)c1cnn2cccnc12 | 0.12 | 3.3 | 0.047 | efflux ratio at 3 h, 10 µM (in vitro [2]): 1.2; CLint scaled at 1 µM [5]: 15 mL/min/kg; inhibition at 1 h, 0.1 µM (LRRK2): 86%; logD [6]: 3.2; Papp A→B at 3 h, 10 µM (in vitro [3]): 17 ×10⁻⁶ cm/s
18 | COc1ccc(Cl)cc1-c1nn(C)cc1NC(=O)c1cncc2c[nH]nc12 | 0.6 | 20 | 0.78 | 
19 | O=C(Nc1c[nH]nc1-c1cc(Cl)ccc1OC(F)(F)F)c1cnn2cccnc12 | 2.1 | 64 | 0.49 | 
20 | O=C(Nc1c[nH]nc1-c1cc(Cl)ccc1OC(F)F)c1cncc2c[nH]nc12 | 0.56 | 18 | 0.49 | IC50 [7]: 79 nM; IC50 [8]: 1.9 nM; efflux ratio at 3 h, 10 µM (in vitro [2]): 1.9; CLint scaled at 1 µM [5]: 15 mL/min/kg; Ratio IC50 (Homo sapiens): 41; inhibition at 1 h, 0.1 µM (LRRK2): 52%; logD [6]: 2.7; Papp A→B at 3 h, 10 µM (in vitro [3]): 9.5 ×10⁻⁶ cm/s
21 | Cn1cc(NC(=O)c2cnn3cccnc23)c(-c2cc(Cl)ccc2O)n1 | 32 |  | 13 | 
22 | O=C(Nc1c[nH]nc1-c1c(OC(F)F)ccc(Cl)c1F)c1cnn2cccnc12 | 0.56 | 14 | 0.16 | 
23 | O=C(Nc1c[nH]nc1-c1cc(Cl)ccc1OC(F)F)c1snc2cccnc12 | 0.47 | 20 | 0.085 | 
24 | COc1ccc(Cl)cc1-c1nn(C)cc1NC(=O)c1cncc2[nH]cnc12 | 5.7 |  | 2.6 | 
25 | COc1cc(F)c(Cl)cc1-c1n[nH]cc1NC(=O)c1cnn2cccnc12 | 2.2 | 42 | 0.79 | 

Row | SMILES | Ki [1] [nM] | IC50 (Janus Kinase (JAK)) [nM] | Ki [4] [nM] | also measured
26 | COc1c(F)cc(Cl)cc1-c1n[nH]cc1NC(=O)c1cnn2cccnc12 | 9.2 |  | 1.2 | 
27 | Nc1nn2cccnc2c1C(=O)Nc1c[nH]nc1-c1cc(Cl)ccc1OC(F)F | 0.19 | 4 | 0.042 | efflux ratio at 3 h, 10 µM (in vitro [2]): 0.83; CLint scaled at 1 µM [5]: 11 mL/min/kg; inhibition at 1 h, 0.1 µM (LRRK2): 99%; logD [6]: 3.3; Papp A→B at 3 h, 10 µM (in vitro [3]): 15 ×10⁻⁶ cm/s
28 | CCn1c(C(=O)N(C2CC2)C2CC2)cc2c3c(ncn3C)c(Nc3cc(C)n(C)n3)nc21 [BMS-911543] | 360 | > 1000 |  | efflux ratio at 3 h, 10 µM (in vitro [2]): 0.94; Papp A→B at 3 h, 10 µM (in vitro [3]): 16 ×10⁻⁶ cm/s
29 | Cc1ccn2ncc(C(=O)Nc3c[nH]nc3-c3cc(Cl)ccc3OC(F)F)c2n1 | 0.99 | 34 | 0.1 | 
30 | O=C(Nc1c[nH]nc1-c1cc(I)ccc1OC(F)F)c1cnn2cccnc12 | 0.15 | 2.8 | 0.045 | efflux ratio at 3 h, 10 µM (in vitro [2]): 1; CLint scaled at 1 µM [5]: 15 mL/min/kg; inhibition at 1 h, 0.1 µM (LRRK2): 91%; logD [6]: 3.4; Papp A→B at 3 h, 10 µM (in vitro [3]): 15 ×10⁻⁶ cm/s
31 | Cn1cc(NC(=O)c2cnn3cccnc23)c(-c2cc(Cl)ccc2C2CC2)n1 | 0.91 |  | 0.28 | 
32 | Cn1cc(NC(=O)c2cnn3cccnc23)c(-c2cc(Cl)ccc2Cl)n1 |  |  |  | logD [6]: 2.9; Papp A→B at 3 h, 10 µM (in vitro [3]): 20 ×10⁻⁶ cm/s
33 | Cn1ncc(NC(=O)c2cnn3cccnc23)c1-c1cc(Cl)ccc1Cl | 39 | > 1000 | 3.5 | 
34 | Cc1ccc(OC(F)F)c(-c2n[nH]cc2NC(=O)c2cnn3cccnc23)c1 | 1.4 | 27 | 0.34 | 
35 | COc1ccc(Cl)cc1-c1n[nH]cc1NC(=O)c1cnn2cccnc12 | 0.89 | 23 | 0.36 | 
36 | O=C(Nc1c[nH]nc1-c1cc(Cl)ccc1OC(F)F)c1cncc2ccoc12 | 1.8 | 36 | 0.5 | 
37 | COc1ccc(Cl)cc1-c1nc(C)sc1NC(=O)c1cnn2cccnc12 | 0.99 | 58 | 0.45 | 
38 | O=C(Nc1c[nH]nc1-c1cc(F)ccc1OC(F)F)c1cnn2cccnc12 | 0.71 | 34 | 0.19 | 
39 | COc1ccc(Cl)cc1-c1nn(C)cc1NC(=O)c1cncc2cccnc12 | 1.9 | 38 | 0.62 | 
40 | O=C(Nc1c[nH]nc1-c1cc(Cl)ccc1SC(F)F)c1cnn2cccnc12 | 0.85 | 26 | 0.23 | 
41 | COc1cc(O)c(Cl)cc1-c1n[nH]cc1NC(=O)c1cnn2cccnc12 | 0.31 | 140 | 0.16 | 
42 | O=C(Nc1c[nH]nc1-c1cc(Cl)c(O)cc1OC(F)F)c1cnn2cccnc12 | 0.11 | 36 | 0.057 | 
43 | CCOc1ccc(Cl)cc1-c1n[nH]cc1NC(=O)c1cnn2cccnc12 | 1.4 | 54 | 0.8 | 
44 | Cn1cc(NC(=O)c2cnn3cccnc23)c(-c2cc(Cl)ccc2CCO)n1 | 12 |  | 4 | 
45 | N#Cc1ccc(OC(F)F)c(-c2n[nH]cc2NC(=O)c2cnn3cccnc23)c1 | 0.9 | 22 | 0.27 | 
46 | Cc1nc(-c2cc(Cl)ccc2OC(F)F)c(NC(=O)c2cnn3cccnc23)[nH]1 | 3.9 |  | 1.1 | 
47 | CC(C)Oc1ccc(Cl)cc1-c1nn(C)cc1NC(=O)c1cnn2cccnc12 | 7.9 |  | 2 | 
48 | CCc1ccc(OC(F)F)c(-c2n[nH]cc2NC(=O)c2cnn3cccnc23)c1 | 0.53 | 13 | 0.19 | 
49 | O=C(Nc1c[nH]nc1-c1cc(Cl)ccc1OC1CC1)c1cnn2cccnc12 | 1.3 | 21 | 0.45 | 

— ChEMBL document CHEMBL4665643 (Bioorg Med Chem Lett, 2019)
